Three molecules from patent publication US11685739B2, “High penetration drugs and their compositions thereof for treatment of Parkinson diseases” (TECHFIELDS PHARMA CO., LTD, priority 2013, dated 2023) can be followed below.

Series [1] has as its system motor function deficits induced by 6-OHDA in Parkinson's disease (PD) model. Briefly: Rotarod test in rats with 6-OHDA lesion, Parkinson's disease (PD) model. The note with it: for Side effects (dyskinesia at peak dose, end-of-dose deterioration of function etc.): L-DOPA orally. The format is in vivo, Sprague-Dawley rats.
For series [2] the following is noted: human, pH 7.4.
Series [3] deals with motor function deficits induced by 6-OHDA in Parkinson's disease (PD) model. Briefly: Rotarod test in rats with 6-OHDA lesion, Parkinson's disease (PD) model. The format is in vivo, Sprague-Dawley rats. The note with it: Example 31; for Side effects (dyskinesia at peak dose, end-of-dose deterioration of function etc.): L-DOPA orally, pro-drug transdermally. How it is done:
Test subjects (Sprague-Dawley rats) were prepared, grouped, and tested following the protocol below: • 1. 200 Sprague-Dawley rats (male, 200-230 g) underwent brain stereotaxic surgery after 1 week acclamation in animal facility; • 2. After anesthesia, a bur hole (1 mm in diameter) was made on skull on the left side with a motor drill based on the coordinates: AP +0.5 mm, ML −2.8 mm, DV 6.0 mm relative to Bregma; • 3. 6-OHDA (20 μg at 5 mg/mL) or sterile saline was injected into the left striatum with a microsyringe fitted with a 26-gauge steel cannula. The chemical caused the retrograde neurodegeneration in the distal substantia nigra and impairs dopamine transmission in the nigro-striatal pathway, which eventually led to functional disturbance of motor activities; • 4. Apomorphine and classic rotation test was carried out to screen animals at the end of week 3 post 6-OHDA treatment. Animals that matched lesion type and apomorphine-induced rotational scores were allotted to 11 groups; and • 5. Rats were divided into 11 groups (n=12), each group was applied with the drug(s) at the doses specified in Table 2:
• 6. Dose Formulations • (1) L-DOPA in water (3 mg/mL) was the positive control solution for group 1 (orally for group 1, transdermally for groups 2-11). The volume of administration was 2 mL/kg. Vehicle solution (negative control solution for group 2) was 30% ethanol (v/v). The volume of administration was 1286 μL/kg. Other test solutions (groups 3-11) were freshly prepared every day. • (2) Preparation method of test solutions for groups 3-5: 50.33 mg of Drug A was dissolved in 10 mL of 30% ethanol(v/v). This solution was the stock solution[(2)a]. • a. The test solution for group 5 (high dose group) of Drug A: The stock solution [(2)a] was the test solution for Group 5. The volume of administration was 1286 μL/kg. • b. The test solution for group 4 (moderate dose group) of Drug A: 3.00 mL of the stock solution [(2)a] was diluted to final volume 9.00 mL with 30% ethanol(v/v). This solution was the test solution for Group 4. The volume of administration was 1286 μL/kg. • c. […]

Like-named read-outs stand apart in the source and are kept apart here.

On to `CC(C)OC(=O)[C@@H](N)Cc1ccc(OC(=O)c2ccccc2)c(OC(=O)c2ccccc2)c1.Cl` [Compound-11, (S)-4-(2-amino-3-isopropoxy-3-oxopropyl)-1,2-phenylene dibenzoate hydrochloride], for which, in series [1] (Example 31, 0.67 mg/kg transdermal (group 3) vs 2 mg and 6 mg/kg (groups 4 and 5)), the “Efficacy of low dose compared with moderate and high dose groups” value was “much higher than that of the moderate and high dose groups”. The “The cumulative amount of test compounds” value in series [2] (1 h) is 0.58 mg; in series [2] (2 h) it was 1.15 mg; in series [2] (4 h) it was 2.33 mg; in series [2] (8 h) it was 4.71 mg. Further, in series [3], the “Side effects (dyskinesia at peak dose, end-of-dose deterioration of function etc.)” value was “avoided dyskinesia at peak dose, and end-of-dose deterioration of function”.

In the case of `CCN(CC)CCOC(=O)c1ccccc1OC(C)=O.Cl` [Compound-29, 2-(diethylamino)ethyl 2-acetoxybenzoate hydrochloride], the “The cumulative amount of test compounds” value in series [2] (1 h) is recorded as 1.08 mg; in series [2] (2 h) it was 2.13 mg; in series [2] (4 h), 4.27 mg; in series [2] (8 h), 8.48 mg. In series [3] (30 mg and 90 mg/kg transdermal, three-week treatment), the “Efficacy in Rotarod test comparing to vehicle group and positive control group” value is reported as “good efficacy”.

`NC(Cc1ccc(O)c(O)c1)C(=O)O` (centres unmarked) [Compound-31, 2-amino-3-(3,4-dihydroxyphenyl)propanoic acid]: the “Efficacy in Rotarod test comparing to Vehicle group” value in series [1] (Example 31, 6 mg/kg orally (Group 1), three-week treatment) is listed as “did not exhibit efficacy”; in series [1] (Example 35, 6 mg/kg orally, four-week treatment) it was “did not exhibit efficacy”; in series [1] (Example 36, 6 mg/kg orally, four-week treatment), “did not exhibit efficacy”. Further, the “Efficacy in Rotarod test comparing to the negative control group” value in series [1] (Example 33, 6 mg/kg orally, four-week treatment) is given as “did not exhibit efficacy”. Further, the “Side effects (dyskinesia at peak dose, end-of-dose deterioration of function etc.)” value in series [1] (Example 33, pro-drug transdermally) was “caused nausea, vomiting, gastrointestinal bleeding, dyskinesia at peak dose, and end-of-dose deterioration of function”; in series [1] (Example 35, pro-drug of dopamine transdermally), “caused nausea, vomiting, gastrointestinal bleeding, dyskinesia at peak dose, and end-of-dose deterioration of function”; in series [1] (Example 36, pro-drug transdermally), “caused nausea, vomiting, gastrointestinal bleeding, dyskinesia at peak dose, and end-of-dose deterioration of function”; in series [3], “caused nausea, vomiting, gastrointestinal bleeding, dyskinesia at peak dose, and end-of-dose deterioration of function”. The “The cumulative amount of test compounds” value in series [2] (1 h) is 0.001 mg; in series [2] (2 h) it was 0.001 mg; in series [2] (4 h), 0.002 mg; in series [2] (8 h), 0.003 mg.
